Test results: patent US9522947B2, “Peptidomimetic macrocycles” (Aileron Therapeutics, Inc., priority 2011, dated 2016)
Positions of bridges follow the written chain, without caps; N, C: chain ends. Non-standard residues stand in square brackets, D forms with d. Residues, ends and D or L forms follow the SMILES beside them. R8 = C=CCCCCCC[C@@](C)(N)C(=O)O; S5 = C=CCCC[C@](C)(N)C(=O)O; Nle = CCCC[C@H](N)C(=O)O

What was measured:
Figure 9 = test: Figure 9
From the text: Table printed on a drawing sheet, Figure 9
Footnotes: ** literature values
First reader's note: The Tesamorelin rows are literature values, and their species, dose and route are printed inside the label cell.

growth hormone = test: Plasma PD study in rats: growth hormone production/release; format: in vivo, Sprague-Dawley rats; details: FIG. 10
Experimental: Five peptidomimetic macrocycles of the invention (SP-1, SP-6, SP-8, SP-21, SP-32), as well as sermorelin, were studied to determine pharmacokinetic and pharmacodynamic parameters in rats. Male Sprague-Dawley rats (300 g, non-fasted, cannulated) were used. The study had three arms: IV administration, SC administration, and SC administration (vehicle control). For experiments using sermorelin, a dose level of 3 mg/kg IV/SC bolus was used (dose volume of 3 mL/kg dose and dose concentration of 1 mg/mL). The vehicle used was: 10 wt % N, N-Dimethylacetamide, 10 wt % DMSO, 2 wt % Solutol HS 15 in water for injection containing 45 mg/mL (4.5 wt %) Mannitol and 25 mM (0.38 wt %) Histidine (pH 7.5; 320 mOsm/kg). The peptide was first dissolved at high concentration in DMA and DMSO before a second dilution in Solutol vehicle.
For experiments using peptidomimetic macrocycles, 0.1 mL of DMA and 0.1 mL of DMSO were used to combine with each mg of macrocycle (˜4.3-4.5 mg of macrocycle used in each experiment). Sonication was used to ensure complete solubilization. 0.8 mL of Solutol vehicle was used for each mg of macrocycle in DMA/DMSO. The solutions were mixed gently with pipet or light vortexing. Fresh vials were used for each day of dosing, and macrocycles were stored solid at −20° C. prior to formulation. […]

[1] = cited from earlier work

Compound	Clp | (Figure 9)	MRT | hr (Figure 9)	Vdss | (Figure 9)	t 1/2 | hr (Figure 9)	stimulation of growth hormone production (growth hormone)	AUCinf | (Figure 9)	half-life of GHRH after intravenous injection [1]
CCCC[C@H](NC(=O)[C@@H](NC(=O)[C@H](CC(=O)O)NC(=O)[C@H](CCC(N)=O)NC(=O)[C@H](CC(C)C)NC(=O)[C@H](CC(C)C)NC(=O)[C@H](CCCCN)NC(=O)[C@H](CCCNC(=N)N)NC(=O)[C@]1(C)CCCC=CCCCCCC[C@@](C)(NC(=O)[C@H](CCCNC(=N)N)NC(=O)[C@H](Cc2ccc(O)cc2)NC(=O)[C@H](CO)NC(=O)[C@H](CC(N)=O)NC(=O)[C@@H](NC(=O)[C@H](Cc2ccccc2)NC(=O)[C@@H](NC(=O)[C@H](C)NC(=O)[C@H](CC(=O)O)NC(=O)[C@@H](C)NC(=O)[C@@H](N)Cc2ccc(O)cc2)[C@@H](C)CC)[C@@H](C)O)C(=O)N[C@@H](C(C)C)C(=O)N[C@@H](CC(C)C)C(=O)NCC(=O)N[C@@H](CCC(N)=O)C(=O)N[C@@H](CC(C)C)C(=O)N[C@@H](CO)C(=O)N1)[C@@H](C)CC)C(=O)N[C@@H](CO)C(=O)N[C@@H](CCCNC(=N)N)C(N)=O [SP-32] (H-Y[dA]DAIFTNSYR[R8]VLGQLS[S5]RKLLQDI[Nle]SR-NH2; staple 12-19)	1.35 mL/min/kg	2.3 h	0.19 L/kg	9.7 h	–	–	–
CCCC[C@H](NC(=O)[C@@H](NC(=O)[C@]1(C)CCCC=CCCC[C@](C)(NC(=O)[C@H](CCCNC(=N)N)NC(=O)[C@H](C)NC(=O)[C@H](CO)NC(=O)[C@H](CC(C)C)NC(=O)[C@H](CCC(N)=O)NC(=O)CNC(=O)[C@H](CC(C)C)NC(=O)[C@@H](NC(=O)[C@]2(C)CCCC=CCCCCCC[C@@](C)(NC(=O)[C@H](C)NC(=O)[C@H](CC(=O)O)NC(=O)[C@@H](C)NC(=O)[C@@H](N)Cc3ccc(O)cc3)C(=O)N[C@@H](Cc3ccccc3)C(=O)N[C@@H]([C@@H](C)O)C(=O)N[C@@H](CC(N)=O)C(=O)N[C@@H](CO)C(=O)N[C@@H](Cc3ccc(O)cc3)C(=O)N[C@@H](CCCNC(=N)N)C(=O)N2)C(C)C)C(=O)N[C@@H](CC(C)C)C(=O)N[C@@H](CC(C)C)C(=O)N[C@@H](CCC(N)=O)C(=O)N1)[C@@H](C)CC)C(=O)N[C@@H](CO)C(=O)N[C@@H](CCCNC(=N)N)C(N)=O [SP-21] (H-Y[dA]DA[R8]FTNSYR[S5]VLGQLSAR[S5]LLQ[S5]I[Nle]SR-NH2; staple 5-12, 21-25)	1.65 mL/min/kg	5.3 h	0.524 L/kg	10.1 h	–	–	–
CCCC[C@@H]1NC(=O)[C@H]([C@@H](C)CC)NC(=O)[C@H](CC(=O)O)NC(=O)[C@H](CCC(N)=O)NC(=O)[C@H](CC(C)C)NC(=O)[C@H](CC(C)C)NC(=O)[C@](C)(NC(=O)[C@H](CCCNC(=N)N)NC(=O)[C@H](C)NC(=O)[C@H](CO)NC(=O)[C@H](CC(C)C)NC(=O)[C@H](CCC(N)=O)NC(=O)CNC(=O)[C@H](CC(C)C)NC(=O)[C@@H](NC(=O)[C@H](CCCCN)NC(=O)[C@H](CCCNC(=N)N)NC(=O)[C@H](Cc2ccc(O)cc2)NC(=O)[C@H](CO)NC(=O)[C@]2(C)CCCC=CCCC[C@](C)(NC(=O)[C@H](CC(=O)O)NC(=O)[C@@H](C)NC(=O)[C@@H](N)Cc3ccc(O)cc3)C(=O)N[C@@H]([C@@H](C)CC)C(=O)N[C@@H](Cc3ccccc3)C(=O)N[C@@H]([C@@H](C)O)C(=O)N2)C(C)C)CCCCCCC=CCCC[C@@](C)(C(=O)N[C@@H](CCCNC(=N)N)C(N)=O)NC1=O [SP-8] (H-Y[dA]D[S5]IFT[S5]SYRKVLGQLSAR[R8]LLQDI[Nle][S5]R-NH2; staple 4-8, 21-28)	–	–	–	–	stimulation of growth hormone production	–	–
CC/C=C/CC(=O)N[C@@H](Cc1ccc(O)cc1)C(=O)N[C@@H](C)C(=O)N[C@@H](CC(=O)O)C(=O)N[C@@H](C)C(=O)N[C@H](C(=O)N[C@@H](Cc1ccccc1)C(=O)N[C@H](C(=O)N[C@@H](CC(N)=O)C(=O)N[C@@H](CO)C(=O)N[C@@H](Cc1ccc(O)cc1)C(=O)N[C@@H](CCCNC(=N)N)C(=O)N[C@@H](CCCCN)C(=O)N[C@H](C(=O)N[C@@H](CC(C)C)C(=O)NCC(=O)N[C@@H](CCC(N)=O)C(=O)N[C@@H](CC(C)C)C(=O)N[C@@H](CO)C(=O)N[C@@H](C)C(=O)N[C@@H](CCCNC(=N)N)C(=O)N[C@@H](CCCCN)C(=O)N[C@@H](CC(C)C)C(=O)N[C@@H](CC(C)C)C(=O)N[C@@H](CCC(N)=O)C(=O)N[C@@H](CC(=O)O)C(=O)N[C@H](C(=O)N[C@@H](CCSC)C(=O)N[C@@H](CO)C(=O)N[C@@H](CCCNC(=N)N)C(=O)N[C@@H](CCC(N)=O)C(=O)N[C@@H](CCC(N)=O)C(=O)NCC(=O)N[C@@H](CCC(=O)O)C(=O)N[C@@H](CO)C(=O)N[C@@H](CC(N)=O)C(=O)N[C@@H](CCC(N)=O)C(=O)N[C@@H](CCC(=O)O)C(=O)N[C@@H](CCCNC(=N)N)C(=O)NCC(=O)N[C@@H](C)C(=O)N[C@@H](CCCNC(=N)N)C(=O)N[C@@H](C)C(=O)N[C@@H](CCCNC(=N)N)C(=O)N[C@@H](CC(C)C)C(N)=O)[C@@H](C)CC)C(C)C)[C@@H](C)O)[C@@H](C)CC [Tesamorelin, dog 0.1 µg/kg IV**]	–	–	–	0.4 h	–	5301 ng·h/mL	–
CCCC[C@H](NC(=O)[C@@H](NC(=O)[C@H](CC(=O)O)NC(=O)[C@H](CCC(N)=O)NC(=O)[C@H](CC(C)C)NC(=O)[C@]1(C)CCCC=CCCCCCC[C@@](C)(NC(=O)[C@H](CC(C)C)NC(=O)[C@@H](NC(=O)[C@H](CCCCN)NC(=O)[C@H](CCCNC(=N)N)NC(=O)[C@H](Cc2ccc(O)cc2)NC(=O)[C@H](CO)NC(=O)[C@]2(C)CCCC=CCCC[C@](C)(NC(=O)[C@H](CC(=O)O)NC(=O)[C@@H](C)NC(=O)[C@@H](N)Cc3ccc(O)cc3)C(=O)N[C@@H]([C@@H](C)CC)C(=O)N[C@@H](Cc3ccccc3)C(=O)N[C@@H]([C@@H](C)O)C(=O)N2)C(C)C)C(=O)N[C@@H](CCC(N)=O)C(=O)N[C@@H](CC(C)C)C(=O)N[C@@H](CO)C(=O)N[C@@H](C)C(=O)N[C@@H](CCCNC(=N)N)C(=O)N[C@@H](CCCCN)C(=O)N1)[C@@H](C)CC)C(=O)N[C@@H](CO)C(=O)N[C@@H](CCCNC(=N)N)C(N)=O [SP-6] (H-Y[dA]D[S5]IFT[S5]SYRKVL[R8]QLSARK[S5]LQDI[Nle]SR-NH2; staple 4-8, 15-22)	2.13 mL/min/kg	3.7 h	0.474 L/kg	20.6 h	–	23477 ng·h/mL	–
GHRH: Human GHRH (Growth Hormone-Releasing Hormone), a 44-amino-acid peptide	–	–	–	–	–	–	0.167 to 0.2 h
